Laboratory results: US20210268004A1, “COMPOSITION CONTAINING BECLOMETHASONE FOR THE PREVENTION AND THE TREATMENT OF BACTERIAL PROSTATITIS AND VAGINITIS” (SOFAR S.P.A., priority 2018, published 2021)
Read-outs that look alike come from different tables or passages of the source.

Tests used:
[1] = system: colorectal mucosa (epithelial tissue of the human colon reconstructed in 3D); details: for recovery %: human
Protocol: The trial was conducted according to the OCSE TG 428-EU approved method used for percutaneous penetration.
Like in the first trial, the test was conducted at 37° C. and relative humidity >90%.
Like in the first phase, the test was conducted at 37° C. and relative humidity >90%.

[2] = rectal treatment; cited from earlier work

For CCC(=O)OCC(=O)[C@@]1(OC(=O)CC)[C@@H](C)C[C@H]2[C@@H]3CCC4=CC(=O)C=C[C@]4(C)[C@@]3(Cl)[C@@H](O)C[C@@]21C [BDP D, beclomethasone dipropionate], the “recovery Total” value [1] was 1339.30 and the recovery % ([1]; 48 h, 200 mg/mL) was 22%.
For CCC(=O)OCC(=O)[C@@]1(OC(=O)CC)[C@@H](C)C[C@H]2[C@@H]3CCC4=CC(=O)C=C[C@]4(C)[C@@]3(Cl)[C@@H](O)C[C@@]21C [BDP A, beclomethasone dipropionate], the “recovery Total” value [1] was 149.81 and the recovery % ([1]; 24 h, 5 mg/mL) was 200%.
For CCC(=O)OCC(=O)[C@@]1(OC(=O)CC)[C@@H](C)C[C@H]2[C@@H]3CCC4=CC(=O)C=C[C@]4(C)[C@@]3(Cl)[C@@H](O)C[C@@]21C [BDP C, beclomethasone dipropionate], the “recovery Total” value [1] was 112.53 and the recovery % ([1]; 24 h, 5 mg/mL) was 75%.
For CCC(=O)OCC(=O)[C@@]1(OC(=O)CC)[C@@H](C)C[C@H]2[C@@H]3CCC4=CC(=O)C=C[C@]4(C)[C@@]3(Cl)[C@@H](O)C[C@@]21C [BDP, beclomethasone dipropionate], the adverse effects [2] is listed as “almost without the adverse effects typical of steroids”.
For CCC(=O)OCC(=O)[C@@]1(OC(=O)CC)[C@@H](C)C[C@H]2[C@@H]3CCC4=CC(=O)C=C[C@]4(C)[C@@]3(Cl)[C@@H](O)C[C@@]21C [BDP B, beclomethasone dipropionate], the “recovery Total” value [1] was 133.53 and the recovery % ([1]; 24 h, 5 mg/mL) was 89%.
